Measured values: PMC10458514, “Structure–Activity Relationship Studies on 6-Chloro-1-phenylbenzazepines Leads to the Identification of a New Dopamine D1 Receptor Antagonist” (Molecules, 2023)
Several values for one entry are separate records, joined by “and”; a condition that tells them apart may be missing. Equal values may be shown once. Read-outs that look alike come from different tables or passages of the source.

Assays:
[1] = target: T1, D5R (dopamine D5 receptor) (Homo sapiens, UniProt P21918); experiment: biochemical; settings: [3H]SCH23390 radioligand, triplicate, na = not active (<50% inhibition in a primary assay when tested at 10 µM)
T1 sequence (P21918 whole entry): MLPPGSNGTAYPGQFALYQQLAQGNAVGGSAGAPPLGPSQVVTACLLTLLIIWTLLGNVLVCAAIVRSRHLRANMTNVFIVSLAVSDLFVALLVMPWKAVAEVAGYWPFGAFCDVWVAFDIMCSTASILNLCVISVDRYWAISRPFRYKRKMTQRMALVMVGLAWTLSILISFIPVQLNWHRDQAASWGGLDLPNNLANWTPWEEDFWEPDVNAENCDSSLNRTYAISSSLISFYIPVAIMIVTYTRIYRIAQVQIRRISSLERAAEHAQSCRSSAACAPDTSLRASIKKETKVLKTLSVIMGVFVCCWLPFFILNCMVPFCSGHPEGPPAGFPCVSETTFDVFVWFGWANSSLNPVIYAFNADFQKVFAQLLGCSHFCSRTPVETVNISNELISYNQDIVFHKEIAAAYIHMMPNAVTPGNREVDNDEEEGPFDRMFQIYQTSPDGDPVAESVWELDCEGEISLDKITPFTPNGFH

[2] = target: T2, D1R (dopamine D1 receptor) (Homo sapiens, UniProt P21728); settings: for Selectivity D5/D1: ratio of Ki D5R to Ki D1R
T2 sequence (P21728 whole entry): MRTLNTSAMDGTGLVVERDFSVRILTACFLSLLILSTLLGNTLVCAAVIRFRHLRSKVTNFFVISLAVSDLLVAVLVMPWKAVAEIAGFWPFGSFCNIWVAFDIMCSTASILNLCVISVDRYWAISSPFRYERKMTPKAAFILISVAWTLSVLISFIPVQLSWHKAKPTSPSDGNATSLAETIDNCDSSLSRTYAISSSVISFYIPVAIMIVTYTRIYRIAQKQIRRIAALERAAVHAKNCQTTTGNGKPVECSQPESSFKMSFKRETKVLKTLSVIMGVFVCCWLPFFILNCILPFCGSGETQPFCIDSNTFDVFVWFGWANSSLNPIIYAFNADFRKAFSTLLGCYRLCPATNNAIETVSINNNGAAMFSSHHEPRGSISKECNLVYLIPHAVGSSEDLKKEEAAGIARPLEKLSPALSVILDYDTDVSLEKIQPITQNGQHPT

[3] = target: T2, D1R (dopamine D1 receptor); experiment: biochemical; settings: [3H]SCH23390 radioligand, triplicate, na = not active (<50% inhibition in a primary assay when tested at 10 µM)
D1R [4] = target: T3, D1R (Homo sapiens, UniProt P21728); experiment: D1R cAMP functional assay, antagonist format (Eurofins DiscoverX HitHunter); assay type: cell-based; settings: antagonist mode; for Max Response, antagonist format: agonist challenge at EC80, in % (unit assumed)
T3 construct: Eurofins Discover X
T3 sequence (P21728 whole entry): as above
Experimental: (§1) In the agonist format, cells were first incubated with sample to induce a response. Then, the media was aspirated from the cells and replaced with 15 μL 2:1 HBSS/10 mM Hepes: cAMP XS + Ab reagent. Sample stocks were diluted to generate 4X sample in assay buffer. […] The final assay concentration used was 1%. In antagonist mode, the cells were pre-incubated with a sample followed by agonist challenge at the EC80 concentration. The media was aspirated from cells and replaced with 10 μL 2:1 HBSS/10 mM Hepes: cAMP XS + Ab reagent. […] For agonist and antagonist assays, signal detection was performed as follows. […] This was followed by incubation with 20 μL cAMP XS + EA reagent for 3 h at room temperature. The microplates were read following signal generation with a PerkinElmer Envision™ instrument for chemiluminescent signal detection.

D5R = settings: cited from earlier work
D1R [5] = target: T3, D1R; settings: cited from earlier work
D1R [6] = target: T3, D1R; experiment: D1R cAMP functional assay, agonist format (Eurofins DiscoverX HitHunter); assay type: cell-based; settings: agonist mode
Experimental: as §1

[7] = target: T1, D5R (dopamine D5 receptor); settings: read-out: Ki D5R; [3H]SCH23390 radioligand; triplicate; na = not active (<50% inhibition in a primary assay when tested at 10 µM)
[8] = [3H]SCH23390 radioligand, triplicate, na = not active (<50% inhibition in a primary assay when tested at 10 µM)

Molecule | Ki [3] | melting point | other results
Cc1cccc(C2CN(C)CCc3c2ccc(O)c3Cl)c1 (centres unmarked) [Compound 15b, 6-chloro-3-methyl-1-(m-tolyl)-2,3,4,5-tetrahydro-1H-benzo[d]azepin-7-ol] | 78 nM and 77.9 nM | 142.6 to 144 °C | Ki [1]: 165 ± 4.9 nM; Selectivity D5/D1 [2]: 2.1
CCCC(=O)Nc1cc2c(c(Cl)c1O)CCN(C)CC2c1ccccc1 (centres unmarked) [Compound 19a, N-(9-chloro-8-hydroxy-3-methyl-5-phenyl-2,3,4,5-tetrahydro-1H-benzo[d]azepin-7-yl)butyramide] | 1970 ± 41.4 nM | 148.7 to 150.1 °C | 
CN1CCc2c(cc(NC(N)=O)c(O)c2Cl)C(c2ccccc2)C1 (centres unmarked) [Compound 23a, 1-(9-chloro-8-hydroxy-3-methyl-5-phenyl-2,3,4,5-tetrahydro-1H-benzo[d]azepin-7-yl)urea] | 1762 ± 17.6 nM | 141 to 142.1 °C | 
C=CCN1CCc2c(ccc(OC)c2Cl)C(c2ccc(OC)cc2)C1 (centres unmarked) [Compound 12c, 3-allyl-6-chloro-7-methoxy-1-(4-methoxyphenyl)-2,3,4,5-tetrahydro-1H-benzo[d]azepine] |  | 155.4 to 157.1 °C | 
C=CCN1CCc2c(ccc(O)c2Cl)C(c2ccc(O)cc2)C1 (centres unmarked) [Compound 14d, 3-allyl-6-chloro-1-(4-hydroxyphenyl)-2,3,4,5-tetrahydro-1H-benzo[d]azepin-7-ol] |  | 132.5 to 134.1 °C | Ki D1R [2, 8]: no affinity
CN1CCc2cc(Cl)c(O)cc2[C@H]2c3ccccc3CC[C@@H]21 [SCH 39166, reference compound] |  |  | Max Response, antagonist format (D1R [4]): 102.24
COc1ccc2c(c1Cl)CCNCC2c1ccccc1 (centres unmarked) [Compound 10a, 6-chloro-7-methoxy-1-phenyl-2,3,4,5-tetrahydro-1H-benzo[d]azepine] |  | 156.4 to 158 °C | 
Cc1cccc(C2CN(C)CCc3c2cc(NC(N)=O)c(O)c3Cl)c1 (centres unmarked) [Compound 23b, 1-(9-chloro-8-hydroxy-3-methyl-5-(m-tolyl)-2,3,4,5-tetrahydro-1H-benzo[d]azepin-7-yl)urea] |  | 184.6 to 186.1 °C | 
C=CCN1CCc2c(cc(O)c(O)c2Cl)C(c2cccc(C)c2)C1 (centres unmarked) [SKF 83822] |  |  | Ki (D5R): 0.3 nM; Ki (D1R [5]): 0.2 nM
Oc1ccc2c(c1Cl)CCNCC2c1ccccc1 (centres unmarked) [Compound 11a, 6-chloro-1-phenyl-2,3,4,5-tetrahydro-1H-benzo[d]azepin-7-ol] |  | 134.6 to 135.8 °C | Ki [1]: 470 nM; Ki D1R [2, 8]: no D1R affinity
Cc1cccc(C2CNCCc3c2ccc(O)c3Cl)c1 (centres unmarked) [Compound 11b, 6-chloro-1-(m-tolyl)-2,3,4,5-tetrahydro-1H-benzo[d]azepin-7-ol] |  | 122.3 to 124.2 °C | Ki D1R [2, 8]: no affinity
C=CC(=O)Nc1cc2c(c(Cl)c1O)CCN(C)CC2c1ccccc1 (centres unmarked) [Compound 21a, N-(9-chloro-8-hydroxy-3-methyl-5-phenyl-2,3,4,5-tetrahydro-1H-benzo[d]azepin-7-yl)acrylamide] | 1500 ± 18.9 nM | 161.4 to 163.1 °C | 
C=CC(=O)Nc1cc2c(c(Cl)c1O)CCN(C)CC2c1cccc(C)c1 (centres unmarked) [Compound 21b] | 4980 ± 61.3 nM |  | 
Oc1ccc(C2CNCCc3c2ccc(O)c3Cl)cc1 (centres unmarked) [Compound 11d, 6-chloro-1-(4-hydroxyphenyl)-2,3,4,5-tetrahydro-1H-benzo[d]azepin-7-ol] |  | 135.8 to 136.9 °C | Ki D1R [2, 8]: did not bind to D1R
Cc1cccc(C2CN(C)CCc3c2cc([N+](=O)[O-])c(O)c3Cl)c1 (centres unmarked) [Compound 16b, 6-chloro-3-methyl-8-nitro-1-(m-tolyl)-2,3,4,5-tetrahydro-1H-benzo[d]azepin-7-ol] | 4350 nM | 210.4 to 212.6 °C | 
COc1ccc2c(c1Cl)CCNCC2c1cccc(C)c1 (centres unmarked) [Compound 10b, 6-chloro-7-methoxy-1-(m-tolyl)-2,3,4,5-tetrahydro-1H-benzo[d]azepine] |  | 180.4 to 181.8 °C | 
Cc1cccc(C2CN(C)CCc3c2cc(N)c(O)c3Cl)c1 (centres unmarked) [Compound 17b, 8-amino-6-chloro-3-methyl-1-(m-tolyl)-2,3,4,5-tetrahydro-1H-benzo[d]azepin-7-ol] | 72 nM and 71.9 nM | 134.8 to 136 °C | Ki [1]: 146 ± 5.8 nM; Selectivity D5/D1 [2]: 2.0

Molecule | Ki [3] | melting point | other results
CN1CCc2c(cc(N)c(O)c2Cl)C(c2ccccc2)C1 (centres unmarked) [Compound 17a, 8-amino-6-chloro-3-methyl-1-phenyl-2,3,4,5-tetrahydro-1H-benzo[d]azepin-7-ol] | 210 nM | 137 to 138.9 °C | Ki [1]: 270 ± 8.4 nM; Selectivity D5/D1 [2]: 1.3
CC(C)C(=O)Nc1cc2c(c(Cl)c1O)CCN(C)CC2c1ccccc1 (centres unmarked) [Compound 20a, N-(9-chloro-8-hydroxy-3-methyl-5-phenyl-2,3,4,5-tetrahydro-1H-benzo[d]azepin-7-yl)isobutyramide] | 2940 ± 36.2 nM | 144.6 to 145.9 °C | 
CC(=O)Nc1cc2c(c(Cl)c1O)CCN(C)CC2c1cccc(C)c1 (centres unmarked) [Compound 18b, N-(9-chloro-8-hydroxy-3-methyl-5-(m-tolyl)-2,3,4,5-tetrahydro-1H-benzo[d]azepin-7-yl)acetamide] | 1360 ± 14 nM | 151.6 to 152.8 °C | 
CN1CCc2c(ccc(O)c2Cl)C(c2ccccc2)C1 (centres unmarked) [Compound 15a, 6-chloro-3-methyl-1-phenyl-2,3,4,5-tetrahydro-1H-benzo[d]azepin-7-ol] | 30 nM and 30.1 nM | 143.5 to 145.1 °C | Ki [1]: 187 nM; Max Response, antagonist format (D1R [4]): 66.12; IC50 (D1R [4]; agonist challenge at EC80, read-out: RC50 (IC50), antagonist format): 130 nM; RC50 (EC50), agonist format (D1R [6]): No D1R agonistic activity; Max Response, agonist format (D1R [6]; in % (unit assumed)): 17.22; EC50 (D1R [6]; read-out: RC50 (EC50), agonist format): > 10000 nM; Selectivity D5/D1 [2]: 6 and 6.2
COc1ccc2c(c1Cl)CCN(C)CC2c1cccc(C)c1 (centres unmarked) [Compound 13b, 6-chloro-7-methoxy-3-methyl-1-(m-tolyl)-2,3,4,5-tetrahydro-1H-benzo[d]azepine] |  | 174.5 to 176.1 °C | 
CN1CCc2c(ccc(O)c2Cl)C(c2ccc(O)cc2)C1 (centres unmarked) [Compound 15d] | 161 nM |  | Ki [1]: 413 ± 9.8 nM; Selectivity D5/D1 [2]: 2.6
C=CCN1CCc2c(ccc(O)c2Cl)C(c2cccc(C)c2)C1 (centres unmarked) [Compound 14b, 3-allyl-6-chloro-1-(m-tolyl)-2,3,4,5-tetrahydro-1H-benzo[d]azepin-7-ol] | 281 nM | 151.3 to 152.7 °C | Ki [1]: 741 ± 12.5 nM; Selectivity D5/D1 [2]: 2.6
C=CCN1CCc2c(ccc(OC)c2Cl)C(c2cccc(C)c2)C1 (centres unmarked) [Compound 12b, 3-allyl-6-chloro-7-methoxy-1-(m-tolyl)-2,3,4,5-tetrahydro-1H-benzo[d]azepine] |  | 172.1 to 173.8 °C | 
COc1ccc(C2CN(C)CCc3c2ccc(OC)c3Cl)cc1 (centres unmarked) [Compound 13c, 6-chloro-7-methoxy-1-(4-methoxyphenyl)-3-methyl-2,3,4,5-tetrahydro-1H-benzo[d]azepine] |  | 155.4 to 157.1 °C | 
Cc1cccc(C2CNCCc3c2cc([N+](=O)[O-])c(O)c3Cl)c1 (centres unmarked) [Compound 24b, 6-chloro-8-nitro-1-(m-tolyl)-2,3,4,5-tetrahydro-1H-benzo[d]azepin-7-ol] | 38 nM and 38.1 nM | 188.9 to 191.2 °C | Ki [1]: 97.9 ± 3.6 nM; Selectivity D5/D1 [2]: 2.6
CC(=O)Nc1cc2c(c(Cl)c1O)CCN(C)CC2c1ccccc1 (centres unmarked) [Compound 18a, N-(9-chloro-8-hydroxy-3-methyl-5-phenyl-2,3,4,5-tetrahydro-1H-benzo[d]azepin-7-yl)acetamide] |  | 154.4 to 156.2 °C | 
O=[N+]([O-])c1cc2c(c(Cl)c1O)CCNCC2c1ccccc1 (centres unmarked) [Compound 24a, 6-chloro-8-nitro-1-phenyl-2,3,4,5-tetrahydro-1H-benzo[d]azepin-7-ol] |  | 201.4 to 202.8 °C | Ki D1R [2, 8]: no affinity
CN1CCc2c(cc([N+](=O)[O-])c(O)c2Cl)C(c2ccccc2)C1 (centres unmarked) [Compound 16a, 6-chloro-3-methyl-8-nitro-1-phenyl-2,3,4,5-tetrahydro-1H-benzo[d]azepin-7-ol] |  | 198.7 to 200 °C | Ki D1R [2, 8]: no affinity
COc1ccc(C2CNCCc3c2ccc(OC)c3Cl)cc1 (centres unmarked) [Compound 10c, 6-chloro-7-methoxy-1-(4-methoxyphenyl)-2,3,4,5-tetrahydro-1H-benzo[d]azepine] |  | 151.3 to 152.7 °C | 
CCCC(=O)Nc1cc2c(c(Cl)c1O)CCN(C)CC2c1cccc(C)c1 (centres unmarked) [Compound 19b, N-(9-chloro-8-hydroxy-3-methyl-5-(m-tolyl)-2,3,4,5-tetrahydro-1H-benzo[d]azepin-7-yl)butyramide] | 634 ± 12.5 nM | 156.2 to 157.9 °C | Ki [1]: 2960 ± 29.6 nM; Selectivity D5/D1 [2]: 4.7
C=CCN1CCc2c(ccc(O)c2Cl)C(c2ccccc2)C1 (centres unmarked) [Compound 14a] | 102 ± 5.2 nM |  | Ki [1]: 297 ± 19.3 nM; Selectivity D5/D1 [2]: 2.9
N-(9-chloro-8-hydroxy-3-methyl-5-phenyl-2,3,4,5-tetrahydro-1H-benzo[d]azepin-7-yl)methanesulfonamide [Compound 22] |  |  | Ki [7]: 166 ± 6.8 nM; Selectivity D5/D1 [2]: 1.5; Ki ([2]; read-out: Ki D1R, [3H]SCH23390 radioligand, triplicate, na = not active (<50% inhibition in a primary assay when tested at 10 µM)): 113 nM and 114 nM
